“Also recorded” adds a separate entry of the source. Like-named read-outs stand apart in the source and are kept apart here.
What was measured:
[1] = Short term clinical testing, motor disturbance: 10-meter walking; type: in vivo, clinical subjects; conditions: of the 21 cases; 300 mg per day for 2 days
Procedure: (§1) Clinical testing was conducted to evaluate the effects of the restorative neuropharmacological agent for motor and speech disturbance according to this invention.
(§2) Clinical subjects for motor disturbance were 2 cases after cerebral aneurysm operations (subarachnoid hemorrhage), 9 cases of brain hemorrhage and 10 cases of brain infarction with chronic apoplectic paralysis, i.e. a total of 21 cases (12 males and 9 females, age 43-83 with an average 61.9±2.5 years). For these clinical subjects, the average time elapsed from the onset had occurred was 100 days.
(§3) First, the clinical subjects received physical therapy without administration of droxidopa (L-DOPS), and then they were evaluated with FMS (Fugl-Meyer score), 10-meter walking and the Barthel index. The clinical subjects then received administration of 300 mg droxidopa (L-DOPS) per day for 2 days in addition to the physical therapy, and were evaluated with FMS. 10-meter walking and with the Barthel index.

solubility = type: physicochemical
Source text: (§4) L-threo-DOPS, whose molecular formula is C9 H11 NO5, is white or light brown crystals or crystalline powder with no taste or odor. […] It is difficult to measure a clear melting point or decomposition point for L-threo-DOPS. […] DL-threo-DOPS, which contains 50% L-threo-DOPS, can also be used in this invention. Hereafter, L-threo-DOPS and DL-threo-DOPS are generically denoted as "threo-DOPS".

[2] = Short term clinical testing, motor disturbance: FMS (Fugl-Meyer score); type: in vivo, clinical subjects; conditions: for Improvement in FMS: individual case
Procedure: as §1, §2, §3

[3] = Long term administration testing: Barthel index (ADL); type: in vivo, clinical subjects; conditions: for Improvement in ADL: individual case
Procedure: Based on the above results, […] term administration testing was conducted.

beagle dogs [4] = conditions: oral 200, 600, 2,000 mg/kg/day, 3 months; cited from earlier work
Rats, SD strain = conditions: cited from earlier work
rabbits = conditions: oral 30, 100, 300 mg/kg/day; cited from earlier work
SD rats [5] = conditions: oral, 12 months, cited from earlier work
[6] = Side-effects in clinical subjects with speech disturbance; type: in vivo; conditions: clinical subjects with Broca aphasia
Procedure: (§5) The clinical subjects for speech disturbance were 10 cases of Broca aphasia after stroke (3 males and 7 females, age 51-65 with an average of 58.6±1.6 years).
(§6) First, without administration of droxidopa, the clinical subjects were evaluated with standard aphasia testing (SLAT). […] For 8 of the clinical subjects, 100 mg of droxidopa was administered once a day for a subsequent 2 weeks and evaluation was conducted using SLAT.

[7] = Speech observation on administration and on stopping administration, Broca aphasia after stroke; type: in vivo, clinical subjects
Procedure: as §5, §6
Administration of droxidopa to these clinical subjects was stopped after 2 weeks. As a result, speech was totally lost in 2 cases. Subsequently, administration of droxidopa was stopped twice and, in one case, speech was totally lost every time administration was stopped and restored when administration was resumed.

Mice, ICR strain = conditions: cited from earlier work
SD rats [8] = conditions: 3 months, cited from earlier work
SD rats [9] = conditions: cited from earlier work; for perinatal and lactation period findings: oral
cultured cells = conditions: cited from earlier work
beagle dogs [10] = conditions: cited from earlier work; for LD50: oral
rhesus monkeys = conditions: cited from earlier work; for LD50: oral
[11] = Clinical testing, speech disturbance (Broca aphasia after stroke): standard aphasia testing (SLAT); type: in vivo, clinical subjects; conditions: after 2 weeks
Procedure: as §5, §6

[12] = Short term clinical testing: central-facial palsy; type: in vivo, clinical subjects; conditions: all of the 12 cases with central-facial palsy; 300 mg per day for 2 days; none of 6 control cases
[13] = Short term clinical testing, motor disturbance: Barthel index (ADL); type: in vivo, clinical subjects; conditions: of the 19 cases improved in 10-meter walking; 300 mg per day for 2 days
Procedure: as §1, §2, §3

microorganisms = conditions: cited from earlier work
physchem = type: physicochemical; conditions: titration method
Source text: as §4

[14] = of the 21 cases, 300 mg per day for 2 days

N[C@@H](C(=O)O)[C@H](O)c1ccc(O)c(O)c1 [L-threo-DOPS, (-)-(2R, 3R)-2-amino-3-hydroxy-3-(3,4-dihydroxyphenyl) propionic acid]
cases with improvement in the 10-meter walking [1]: 19 cases
solubility in ethanol (solubility; ethanol): dissolves very little
solubility in ether (solubility; ether): dissolves very little
solubility in glacial acetic acid (solubility; glacial acetic acid): dissolves very little
solubility in water (solubility; water): dissolves only slightly
FMS increase ([2]; 300 mg per day for 2 days plus physical therapy, higher than control cases): 2.5±0.5
Improvement in FMS ([2]; brain hemorrhage (BH), 300 mg per day for 2 days plus physical therapy, listed as L-DOPS): Improved; also recorded: No change
Improvement in FMS ([2]; brain infarction (BI), 300 mg per day for 2 days plus physical therapy, listed as L-DOPS): Improved; also recorded: No change
Improvement in FMS ([2]; subarachnoid hemorrhage (SAH), 300 mg per day for 2 days plus physical therapy): Improved
cases with improved balance (FMS) [2, 14]: 3 cases
cases with improvement in lower limb motor function (FMS) [2, 14]: 6 cases
cases with improvement in upper limb motor function (FMS) [2, 14]: 10 cases
cases with improved FMS ([2]; of the 21 cases, 300 mg per day for 2 days plus physical therapy): 15 cases
dependence of results on time elapsed since onset of the illness ([3]; 200-500 mg/day for 2 weeks to 2 months): independent of the time elapsed since onset of the illness
Improvement in ADL ([3]; 200 mg per day × 2W, listed as L-DOPS): Improved; also recorded: No change
Improvement in ADL ([3]; 200 mg per day × 4W): No change
Improvement in ADL ([3]; 200 mg per day × 8W): Improved
Improvement in ADL ([3]; 300 mg per day × 3W): Improved
Improvement in ADL ([3]; 300 mg per day × 6W): Improved
Improvement in ADL ([3]; 300 mg per day × 7W): No change
Improvement in ADL ([3]; 500 mg per day × 6W): Improved
cases with improvement in the Barthel index (ADL) ([3]; of the 10 cases, 200-500 mg/day for 2 weeks to 2 months): 7 cases
subacute toxicity findings (beagle dogs [4]): no abnormality was observed
LD50 (Rats, SD strain; hypodermic, female): 95 mg/kg
LD50 (Rats, SD strain; hypodermic, male): 84 mg/kg
LD50 (Rats, SD strain; intravenous, female): 19 mg/kg
LD50 (Rats, SD strain; intravenous, male): 16 to 19 mg/kg
LD50 (Rats, SD strain; oral, female): > 10000 mg/kg
LD50 (Rats, SD strain; oral, male): > 10000 mg/kg
general symptoms, acute toxicity (Rats, SD strain; rats): reduced voluntary motions, deep breathing and bradypnea were observed
influence, organ forming period (rabbits): no influence on the rabbits was observed
chronic toxicity findings (SD rats [5]; 30 mg/kg/day and higher): suppression of weight increases, an increase in thymus weight, necrosis of kidney uriniferous tubuli, degeneration of kidney glomeruli, etc. were observed
chronic toxicity findings (SD rats [5]; 100 mg/kg/day and higher): drooling, myocarditis and calcification of cardiac muscles, etc. were observed
side-effects [6]: No serious side-effect was observed
speech after 2 days of administration ([7]; 300 mg, 3 times a day for 2 days): speech improved
cases in which speech was totally lost after administration was stopped ([7]; administration stopped after 2 weeks): 2 cases
cases in which speech was totally lost every time administration was stopped and restored when resumed ([7]; administration stopped twice): one
LD50 (Mice, ICR strain; hypodermic, female): > 10000 mg/kg
LD50 (Mice, ICR strain; hypodermic, male): > 10000 mg/kg
LD50 (Mice, ICR strain; intravenous, female): > 100 mg/kg
LD50 (Mice, ICR strain; intravenous, male): > 100 mg/kg
general symptoms, acute toxicity (Mice, ICR strain; mice): reduced voluntary motions, deep breathing and bradypnea were observed
LD50 (Mice, ICR strain; oral, female): > 10000 mg/kg
LD50 (Mice, ICR strain; oral, male): > 10000 mg/kg
subacute toxicity findings (SD rats [8]; oral, 60 mg/kg/day and higher): suppressed voluntary motions, necrosis of kidney uriniferous tubuli, necrosis of cardiac muscles, etc. were observed
subacute toxicity findings (SD rats [8]; oral, 300 mg/kg/day and higher): Suppression of weight increases and such were observed
subacute toxicity findings (SD rats [8]; oral, 1,500 mg/kg/day): Drooling was observed
other influence, perinatal and lactation period (SD rats [9]; oral 60, 200, 600 mg/kg/day): No other influence was observed
perinatal and lactation period findings (SD rats [9]; 60 mg/kg or higher): suppression of neonatal development after birth was observed
perinatal and lactation period findings (SD rats [9]; 600 mg/kg): shortening of the pregnancy period was observed
mutagenicity, chromosome abnormality testing (cultured cells): no mutagenicity was observed
general symptoms, acute toxicity (beagle dogs [10]; dogs): no abnormal symptom was observed
LD50 (beagle dogs [10]; female): > 5000 mg/kg
LD50 (beagle dogs [10]; male): > 5000 mg/kg
LD50 (rhesus monkeys; female): > 5000 mg/kg
LD50 (rhesus monkeys; male): > 5000 mg/kg
general symptoms, acute toxicity (rhesus monkeys; rhesus monkeys): no abnormal symptom was observed
cases with improvement in "hearing" (SLAT) [11]: one
cases with improvement in "reading" (SLAT) [11]: 3 cases
cases with improvement in "repeating" (SLAT) [11]: 2 cases
cases with improvement in "speaking" (SLAT) [11]: 7 cases
cases with improvement in "writing" (SLAT) [11]: 6 cases
average improvement rate, SLAT "hearing", imperatives ([11]; 100 mg once a day): 16%
average improvement rate, SLAT "hearing", short sentences ([11]; 100 mg once a day): 33%
average improvement rate, SLAT "reading", Chinese character words ([11]; 100 mg once a day): 10%
average improvement rate, SLAT "reading", short sentences ([11]; 100 mg once a day): 20%
average improvement rate, SLAT "repeating" ([11]; 100 mg once a day): 10%
average improvement rate, SLAT "speaking", actions ([11]; 100 mg once a day): 13%
average improvement rate, SLAT "speaking", names ([11]; 100 mg once a day): 27%
average improvement rate, SLAT "writing", Japanese syllabary words ([11]; 100 mg once a day): 20%
cases with improved SLAT results ([11]; of the 10 cases): 8 cases
cases with central-facial palsy that showed improvement [12]: 12 cases
cases with improvement in the Barthel index (ADL) [13]: one
mutagenicity, back mutation testing (microorganisms): no mutagenicity was observed
pKa (physchem): 7.88
